This passage reports EC50 and Emax results from patent US12281149B2, “Modulators of G-protein coupled receptors” (priority 2021, dated 2025).

Holding throughout (format): cell-based
Test [1] has as its target T1, GLP-1 receptor (Homo sapiens, UniProt P43220). Briefly: HitHunter cAMP assay, GLP-1 receptor. Conditions: for EC50: CHO cells stably expressing human GLP-1 receptor, cAMP accumulation, 30 min, read-out: EC50 GLP-1R; for Emax: CHO cells, cAMP, normalized to maximum signal from GLP-1 (high) and DMSO (low), read-out: Emax GLP-1R.
Test [2] addresses T2, GIP receptor (Homo sapiens, UniProt P48546).
T2 sequence (P48546 22-466): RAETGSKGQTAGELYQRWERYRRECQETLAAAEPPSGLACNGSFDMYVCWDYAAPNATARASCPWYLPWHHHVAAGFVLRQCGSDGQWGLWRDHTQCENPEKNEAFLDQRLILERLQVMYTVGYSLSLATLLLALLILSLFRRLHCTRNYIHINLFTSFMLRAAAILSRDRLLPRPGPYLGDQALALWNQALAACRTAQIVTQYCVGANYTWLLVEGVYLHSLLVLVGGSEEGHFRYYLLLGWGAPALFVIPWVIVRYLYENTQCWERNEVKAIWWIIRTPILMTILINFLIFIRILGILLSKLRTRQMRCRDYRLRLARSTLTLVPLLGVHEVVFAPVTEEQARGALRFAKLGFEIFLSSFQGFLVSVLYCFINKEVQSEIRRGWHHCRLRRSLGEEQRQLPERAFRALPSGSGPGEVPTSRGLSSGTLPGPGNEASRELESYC
The test can be described thus: HitHunter cAMP assay, GIP receptor. Conditions: for EC50: CHO cells stably expressing GIP receptor, cAMP accumulation, 30 min, read-out: EC50 GIP-1R; for Emax: CHO cells, cAMP, normalized to maximum signal from GIP (high) and DMSO (low), read-out: Emax GIP-1R.

Test [3] addresses T2, GIP receptor. Briefly: PathHunter β-arrestin assay, GIP receptor. More on the design: host or cells: PathHunter CHO-K1 GIPR β-Arrestin Cell Line. Particulars: β-arrestin-2 recruitment, PathHunter CHO-K1 GIPR β-Arrestin Cell Line, 90 min at 37° C.; normalized to GIP; read-out: GIPR β Arrestin EC50.
Test [4] has as its target T1, GLP-1 receptor. Briefly: PathHunter β-arrestin assay, GLP-1 receptor. Further details: host or cells: PathHunter CHO-K1 GLP1R β-Arrestin Cell Line. Conditions: β-arrestin-2 recruitment, PathHunter CHO-K1 GLP1R β-Arrestin Cell Line, 90 min at 37° C.; normalized to GLP-1; read-out: GLP-1R β Arrestin EC50.

*1 amine or outer side, *2 acyl side, *3 side chain or, on linkers, in order; H or OH if unused. Where a SMILES comes first, the peptide text is derived from it. Side-chain parts run from the residue outwards. [ ]: non-standard residue; d: D form. The star is where a group is joined. Isobutyryl(2-(3-CN-5-F-Ph)) = CC(C)(C(=O)*)c1cc(F)cc(C#N)c1; C20 diacid = O=C(O)CCCCCCCCCCCCCCCCCCC(=O)*; γGlu = O=C(O)[C@H](CCC(=O)[*:2])N[*:1]; X65 = CC(C)(C(=O)*)c1cc(N)cc(F)c1; αMeL = CC(C)C[C@](C)(N)C(=O)O; Orn = NCCC[C@H](N)C(=O)O; AEEA = NCCOCCOCC(=O)O; Aib = CC(C)(N)C(=O)O; βAla = NCCC(=O)O A value given as a limit tells only on which side of the number the result lay.

T1 sequence (P43220 24-463): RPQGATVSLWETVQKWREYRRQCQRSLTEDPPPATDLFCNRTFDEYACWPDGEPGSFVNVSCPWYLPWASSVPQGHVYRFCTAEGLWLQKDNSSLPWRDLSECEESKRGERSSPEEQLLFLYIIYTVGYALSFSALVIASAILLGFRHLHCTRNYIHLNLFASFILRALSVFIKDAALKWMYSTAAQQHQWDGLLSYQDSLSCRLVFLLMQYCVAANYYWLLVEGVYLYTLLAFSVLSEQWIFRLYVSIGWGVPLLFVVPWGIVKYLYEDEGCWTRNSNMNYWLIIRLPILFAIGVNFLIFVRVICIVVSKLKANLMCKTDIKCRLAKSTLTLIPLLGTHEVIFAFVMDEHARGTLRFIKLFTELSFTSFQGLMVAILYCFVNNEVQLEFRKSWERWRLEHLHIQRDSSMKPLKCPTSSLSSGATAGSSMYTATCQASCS

Regarding `CC[C@H](C)[C@H](NC(=O)[C@H](CC(C)C)NC(=O)[C@H](Cc1c[nH]c2ccccc12)NC(=O)[C@H](CCC(N)=O)NC(=O)[C@@H](NC(=O)[C@H](Cc1ccccc1)NC(=O)[C@H](C)NC(=O)[C@H](CCCCNC(=O)COCCOCCNC(=O)COCCOCCNC(=O)CC[C@H](NC(=O)CCCCCCCCCCCCCCCCCCC(=O)O)C(=O)O)NC(=O)[C@H](CCC(N)=O)NC(=O)[C@H](C)NC(=O)[C@@H](NC(=O)[C@H](CCCCN)NC(=O)[C@H](CC(=O)O)NC(=O)[C@H](CC(C)C)NC(=O)C(C)(C)NC(=O)[C@@H](NC(=O)[C@H](CO)NC(=O)[C@H](Cc1ccc(O)cc1)NC(=O)[C@H](CC(=O)O)NC(=O)[C@H](CO)NC(=O)[C@@H](NC(=O)[C@H](Cc1ccccc1)NC(=O)[C@@H](NC(=O)CNC(=O)[C@H](CCC(=O)O)NC(=O)CCNC(=O)C(C)(C)c1cc(N)cc(F)c1)[C@@H](C)O)[C@@H](C)O)[C@@H](C)CC)[C@@H](C)CC)C(C)C)C(=O)N[C@@H](C)C(=O)NCC(=O)NCC(=O)N1CCC[C@H]1C(=O)N[C@@H](CO)C(=O)N[C@@H](CO)C(=O)NCC(=O)N[C@@H](C)C(=O)N1CCC[C@H]1C(=O)N1CCC[C@H]1C(=O)N1CCC[C@H]1C(=O)N[C@@H](CO)C(N)=O` [Compound 133] ({X65-βAla}-EGTFTSDYSI[Aib]LDKIAQK([AEEA-AEEA-γGlu-C20 diacid])AFVQWLIAGGPSSGAPPPS-NH2), the half-maximal effective concentration (EC50) is 0.0001 to 0.001 µM on GLP-1 receptor [1], 0.1 to 1 µM at GIP receptor [2], over 1 µM on GIP receptor [3] and over 1 µM at GLP-1 receptor [4]. In addition, the figures for the Emax at GLP-1 receptor [1] and at GIP receptor [2] were 104% and 107%, respectively.

On to `CC[C@H](C)[C@H](NC(=O)[C@H](CC(C)C)NC(=O)[C@H](Cc1ccc(O)cc1)NC(=O)[C@@H](CCC(=O)O)NC(=O)[C@@H](NC(=O)[C@H](Cc1ccccc1)NC(=O)[C@H](CCC(=O)O)NC(=O)C(C)(C)NC(=O)[C@H](CCC(N)=O)NC(=O)[C@H](C)NC(=O)[C@H](CCCCNC(=O)COCCOCCNC(=O)COCCOCCNC(=O)CC[C@H](NC(=O)CCCCCCCCCCCCCCCCCCC(=O)O)C(=O)O)NC(=O)[C@H](CCCN)NC(=O)[C@H](CC(=O)O)NC(=O)[C@H](CC(C)C)NC(=O)[C@](C)(CC(C)C)NC(=O)[C@@H](NC(=O)[C@H](CO)NC(=O)[C@H](Cc1ccc(O)cc1)NC(=O)[C@H](CC(=O)O)NC(=O)[C@H](CO)NC(=O)[C@@H](NC(=O)[C@H](Cc1ccccc1)NC(=O)[C@@H](NC(=O)CNC(=O)[C@H](CCC(=O)O)NC(=O)CCNC(=O)C(C)(C)c1cc(F)cc(C#N)c1)[C@@H](C)O)[C@@H](C)O)[C@@H](C)CC)[C@@H](C)CC)C(=O)N[C@@H](CCC(=O)O)C(=O)NCC(=O)NCC(=O)N1CCC[C@H]1C(=O)N[C@@H](CO)C(=O)N[C@@H](CO)C(=O)NCC(=O)N[C@@H](C)C(=O)N1CCC[C@H]1C(=O)N1CCC[C@H]1C(=O)N1CCC[C@H]1C(=O)N[C@@H](CO)C(N)=O` [Compound 134] ({Isobutyryl(2-(3-CN-5-F-Ph))-βAla}-EGTFTSDYSI[αMeL]LD[Orn]K([AEEA-AEEA-γGlu-C20 diacid])AQ[Aib]EFI[dE]YLIEGGPSSGAPPPS-NH2), for which the 50% effective concentration (EC50) is 0.0001 to 0.001 µM on GLP-1 receptor [1], 0.001 to 0.01 µM at GIP receptor [2], over 1 µM on GIP receptor [3] and over 1 µM on GLP-1 receptor [4]. Also, the Emax came to 102% on GLP-1 receptor [1] and 109% on GIP receptor [2].
